This note sets out measurements from paper PMC6960228, “Ethoxysanguinarine, a Novel Direct Activator of AMP-Activated Protein Kinase, Induces Autophagy and Exhibits Therapeutic Potential in Breast Cancer Cells” (Frontiers in Pharmacology, 2020).

SMILES strings stand for the structures. pIC50: −log10 of the molar value.

The pIC50 is −log10 of the IC50, conventionally taken in molar units.

For test [1], the system named is LC3-II and Beclin-1 in MCF-7, MDA-MB-231, and MDA-MB-436 cells. In words: Western blot of autophagy markers. It counts as cell-based, human. The conditions noted are these: Eth 2.4, 2.0 or 2.0 µM and 3-MA 1 mM, 24 h. The method, then: Cells were lysed in radioimmunoprecipitation assay buffer containing 50 mM Tris, pH 8.0, 150 mM NaCl, 0.1% SDS, 0.5% sodium deoxycholate, 1% NP-40, 1 mM DTT, 1 mM NaF, 1 mM sodium orthovanadate, 1 mM phenylmethylsulfonyl fluoride (PMSF; Sigma-Aldrich; Merck KGaA), and 1% protease inhibitors cocktail (EMD Millipore, Billerica, MA, USA). Protein concentration was determined using the Bradford method. Equal amounts of sample (25 µg) were separated by SDS-PAGE (8–12% gels). Electrophoresed proteins were then transferred onto polyvinylidene fluoride membranes (EMD Millipore, Billerica, MA, USA). The membranes were blocked with 5% skimmed milk in Tris-buffered saline at room temperature for 1 h. Following blocking, membranes were incubated overnight at 4°C with primary antibodies and then rinsed with Tris-buffered saline with Tween 20. […]
(§1) Figure 2 Eth induces autophagy in BC cells. […] (C): MCF-7, MDA-MB-231, or MDA-MB-436 cells transfected with pQCXIP-GFP-LC3 plasmid were treated with increasing concentrations of Eth for 24 h, and assessed by immunoﬂuorescence analyses. […] (D): MDA-MB-231 or MDA-MB-436 cells transfected with pQCXIP-GFP-LC3 plasmid were treated with Eth (2.0 µM) and/or 3-MA (1 mM) for 24 h, and assessed by immunoﬂuorescence analyses. […] (F): MCF-7, MDA-MB-231, or MDA-MB-436 cells were treated with Eth (3.5 µM, 3.0 µM, or 3.0 µM) and/or 3-MA (1 mM) for 24 h and analyzed by MTT assay. […]

In test [2] the test system is LC3 redistribution to autophagosomes in BC cells. In words: GFP-LC3 autophagy assay (confocal microscopy). It is filed as cell-based, human. Conditions: 24 h. An excerpt: The cells were transfected with pQCXIP-GFP-LC3 plasmid using the Lipofectamine 3000 (Invitrogen; Thermo Fisher Scientific, Inc.) according to the recommended protocol by the manufacturer and then fixed in 4% paraformaldehyde. The percentage of cells with fluorescent dots representing GFP-LC3 translocation was counted. For visualization of cell nucleus, DAPI was used. Sections were observed using an Olympus laser scanning confocal microscope with imaging software (Olympus Fluoview FV-1000, Tokyo, Japan).
Figure 2 Eth induces autophagy in BC cells. (A): MCF-7, MDA-MB-231, or MDA-MB-436 cells were treated with increasing concentrations of Eth for 24 h. Western blot was performed using antibodies indicated. GAPDH was used as the loading control. (B): MCF-7 (MDA-MB-231 or MDA-MB-436) cells were treated with 2.4 µM (2.0 µM or 2.0 µM) Eth for the indicated times, and cell lysates were subjected to western blot assay. (C): MCF-7, MDA-MB-231, or MDA-MB-436 cells transfected with pQCXIP-GFP-LC3 plasmid were treated with increasing concentrations of Eth for 24 h, and assessed by immunoﬂuorescence analyses. Scale bar = 20 µm. (D): MDA-MB-231 or MDA-MB-436 cells transfected with pQCXIP-GFP-LC3 plasmid were treated with Eth (2.0 µM) and/or 3-MA (1 mM) for 24 h, and assessed by immunoﬂuorescence analyses. Scale bar = 20 µm. […] (F): MCF-7, MDA-MB-231, or MDA-MB-436 cells were treated with Eth (3.5 µM, 3.0 µM, or 3.0 µM) and/or 3-MA (1 mM) for 24 h and analyzed by MTT assay. (G): MCF-7, MDA-MB-231, or MDA-MB-436 cells were treated with Eth (2.4 µM, 2.0 µM, or 2.0 µM) and/or 3-MA (1 mM) for 24 h, and western blot was performed using antibodies indicated. *P < 0.05.
(§2) Figure 3 Eth induces autophagy through the AMPK/mTORC1 signaling. […] (D): MDA-MB-231 or MDA-MB-436 cells transfected with pQCXIP-GFP-LC3 plasmid were treated with Eth (2.0 µM) and/or CC (25 µM) for 24 h, and assessed by immunoﬂuorescence analyses. […] (G): MDA-MB-231 or MDA-MB-436 cells transfected with pQCXIP-GFP-LC3 plasmid were treated with Eth (1.0 µM or 1.6 µM) and/or Met (10 mM) for 24 h, and assessed by immunoﬂuorescence analyses. […]

For test [3], the system named is MCF-7, MDA-MB-231, or MDA-MB-436 cells. Nature of the test: MTT assay, Eth and/or 3-MA. It is filed as cell-based, human. Conditions: Eth 3.5, 3.0 or 3.0 µM and 3-MA 1 mM, 24 h. As to the method: (§3) Cells were seeded into 96-well plate and pre-cultured for 24 h, then treated with Eth for 24. Cell cytotoxicity was determined by MTT assay. The absorbance was measured at 490 nm by automated microplated reader (BioTek Instruments, Inc., Winooski, VT, USA), and the cell death rate was calculated as followed: inhibition rate (%) = (average A490 of the control group − average A490 of the experimental group)/(average A490 of the control group − average A490 of the blank group) × 100%. Cell viability was estimated by trypan blue dye exclusion.
as §1, with “cells. (A): MCF-7, MDA-MB-231, or MDA-MB-436 cells were treated with increasing concentrations of Eth for 24 h. Western blot was performed using antibodies indicated. GAPDH was used as the loading control.” for “cells.”
On the technique in general: Tetrazolium dyes change colour on reduction, which living cells bring about.

The subject of test [4] is AMPKα. In words: Streptavidin agarose affinity assay. It is filed as binding, human. Conditions: cells treated with 4 μM Bio-Eth for 12 h. The method, then: Cell pellets were lysed and the supernatant collection was incubated with indicated antibodies overnight at 4°C, after which protein A/G Plus beads (Santa Cruz Biotechnology) were added and incubated at 4°C for 4 h. The beads were washed 4 times in NETN buffer (1% NP-40, 2 mM EDTA, 40 mM Tris-HCl, 137 mM NaCl, pH 7.4), resuspended in SDS-PAGE loading buffer and boiled for 5 min. For streptavidin agarose affinity assay, cells upon Bio-Eth were lysed; the lysates were incubated with streptavidin agarose, washed and boiled in SDS-PAGE loading buffer. […] Western blot assays were performed.
Figure 4 Eth is a direct activator of AMPK. (A): MCF-7, MDA-MB-231, or MDA-MB-436 cells were treated with increasing concentrations of Eth for 24 h, and AMPK activity assay was performed. (B): The binding mode of Eth docked into AMPK. (C): The binding mode of Eth docked into AMPK. α subunit is green, β subunit is cyan, γ subunit is magenta and Eth is gold. (D): Details of the binding site of Eth in the ADaM site of AMPK. The main residues involved in drug interactions are shown as labeled green sticks. α subunit is green, β subunit is cyan. The pSER-108 was shown in stick and colored by gold. (E) The interaction pattern of Eth with the residues. […] (H): Viability of MCF-7, MDA-MB-231 or MDA-MB-436 cells exposed to Biotin-Eth as determined by MTT assay. […]

For test [5], the system named is MCF-7. Nature of the test: MTT cytotoxicity assay. Conditions: Homo sapiens, MCF7, MCF-7, 24 h. It is filed as cell-based.
From the text: (§4) Human BC cell lines MCF-7, MDA-MB-231, DMA-MB-436, SK-BR3, MDA-MB-468, MDA-MB-453, and MDA-MB-435S and non-tumorigenic MCF-10A human mammary epithelial cells were obtained from American Type Culture Collection (ATCC; Manassas, VA, USA). MCF-7, SK-BR3, MDA-MB-231, and MDA-MB-436 cells were maintained in Dulbecco’s modified Eagle’s medium (DMEM; high glucose; Gibco; Thermo Fisher Scientific, Inc., Waltham, MA, USA) supplemented with 10% fetal bovine serum (FBS; HyClone; Logan, UT, USA) and antibiotics and incubated in a humidified atmosphere with 5% CO2 at 37°C. MDA-MB-468, MDA-MB-453, and MDA-MB-435S cells were maintained in Leibovitz’s L-15 (Gibco) supplemented with 10% FBS and antibiotics and incubated in a humidified atmosphere without CO2 at 37°C. MCF-10A cells were maintained in DMEM/F12 medium containing 5% horse serum (HS), insulin ([…]), epidermal growth factor (EGF, 20 ng/mL), choleratoxin ([…]), hydrocortisone ([…]), penicillin (50 U/mL), and streptomycin (50 U/mL), and incubated in a humidified atmosphere with CO2 at 37°C.
as §3

The subject of test [6] is MDA-MB-436. In words: MTT cytotoxicity assay. It counts as cell-based. Conditions: Homo sapiens, MDA-MB-436, 24 h.
From the text: as §4, §3

Test [7] relates to MDA-MB-231. In words: MTT cytotoxicity assay. Conditions: Homo sapiens, MDA-MB-231, 24 h. It is filed as cell-based.
From the text: as §4, §3

The subject of test [8] is AMPK/mTORC1 signaling in MCF-7, MDA-MB-231, and MDA-MB-436 cells. In words: Western blot of AMPK/mTORC1 signaling. It is filed as cell-based, human. The conditions noted are these: 24 h. As to the method:
Cells were lysed in radioimmunoprecipitation assay buffer containing 50 mM Tris, pH 8.0, 150 mM NaCl, 0.1% SDS, 0.5% sodium deoxycholate, 1% NP-40, 1 mM DTT, 1 mM NaF, 1 mM sodium orthovanadate, 1 mM phenylmethylsulfonyl fluoride (PMSF; Sigma-Aldrich; Merck KGaA), and 1% protease inhibitors cocktail (EMD Millipore, Billerica, MA, USA). Protein concentration was determined using the Bradford method. Equal amounts of sample (25 µg) were separated by SDS-PAGE (8–12% gels). Electrophoresed proteins were then transferred onto polyvinylidene fluoride membranes (EMD Millipore, Billerica, MA, USA). The membranes were blocked with 5% skimmed milk in Tris-buffered saline at room temperature for 1 h. Following blocking, membranes were incubated overnight at 4°C with primary antibodies and then rinsed with Tris-buffered saline with Tween 20. The following primary antibodies were used: anti-Glut3 (1:500; catalog no. sc-74399) (Santa Cruz Biotechnology, Inc., Dallas, TX, USA); anti-LC3 (1:1000; catalog no. 12741), anti-AMPKα (1:1000; catalog no. 2532), anti-phospho-AMPKα (Thr172) (1:1000; catalog no. 2535), anti-phospho-AMPKβ1 (Ser108) (1:1000; catalog no. 4181), anti-AMPKγ1 (1:1000; catalog no. 4187), anti-mTOR (1:1000; catalog no. 2983), anti-phospho-mTOR (Ser2448) (1:1000; catalog no. 5536), anti-P70S6K (1:1000; catalog no. 9202), anti-phospho-P70S6K (Thr389) (1:1000; catalog no. 92775), anti-4E-BP1 (1:1000; catalog no. 9234), anti-phospho-4E-BP1 (Thr37/46) (1:1000; catalog no. 2855), anti-ACC (1:1000; catalog no. 3676), anti-phospho-ACC ([…]) (1:1000; catalog no. 11818), anti-Glut1 (1:1000; catalog no. 12939), anti-Glut4 (1:1000; catalog no. 2213) (All Cell Signaling Technology, Inc., Danvers, MA, USA), and anti-GAPDH (1:5000; catalog no. M20006; Abmart, Shanghai, China). Membranes were then washed, and incubated with horseradish peroxidase-conjugated secondary antibody (1:10000; E030120-01 and E030110-01; EarthOx, LLC, San Francisco, CA, USA) for 1.5 h at room temperature. The protein bands were visualized using SuperSignal® West Pico PLUS Chemiluminescent substrate (catalog no. 34579; Pierce; Thermo Fisher Scientific, Inc., Rockford, IL, USA) ([Zhang et al., 2018]).
as §2, with “signaling. (A): MCF-7, MDA-MB-231, or MDA-MB-436 cells were treated with increasing concentrations of Eth for 24 h. Western blot was performed using antibodies indicated.” for “signaling.”
Background: Immunoblotting shows a protein as a band on a membrane.

In the case of `Cn1cnc(=N)c2[nH]cnc21` [3-MA], the “effect of 3-MA on upregulation of LC-3II and Beclin1 by Eth” value in test [1] is “antagonized the upregulation of autophagy-related proteins LC-3II and Beclin1”. In addition, the “effect of 3-MA on induction of autophagy by Eth” value in test [2] (Eth 2.0 µM and 3-MA 1 mM) is given as “antagonize the induction of autophagy by Eth”. For the same compound, the “effect of 3-MA on cell proliferation inhibited by Eth” value in test [3] is recorded as “significantly reversed the cell proliferation inhibited by Eth”.

Regarding `CN1c2c(ccc3cc4c(cc23)OCO4)-c2ccc3c(c2C1OC(=O)CCCCC1SCC2NC(=O)NC21)OCO3` (stereo not shown) [Bio-Eth], in test [4], the “pull-down of AMPKα by streptavidin agarose” value is recorded as “AMPKα was pulled down by streptavidin agarose”. Further, the pIC50 in test [5] is 5.42; in test [6], 5.43; in test [7], 5.43.

For `c1cc(-c2cnn3cc(-c4ccc(OCCN5CCCCC5)cc4)cnc23)ccn1` [CC, reference compound], the “effect of CC on LC-3II expression and autophagic vacuoles in Eth-treated cells” value in test [2] (Eth 2.0 µM and CC 25 µM) was “reversed the increased LC-3II expression and number of autophagic vacuoles”. Besides, the “effect of CC on Eth-induced reduction in mTORC1 phosphorylation” value in test [8] (Eth 2.4, 2.0 or 2.0 µM and CC 25 µM) is reported as “reversed the reduction in phosphorylation”.

With `CN(C)C(=N)N=C(N)N` [metformin, reference compound], the “effect of metformin co-treatment on Eth action on mTORC1 phosphorylation and autophagy” value in test [8] (Eth 1.6, 1.0 or 1.6 µM and Met 10 mM) is “enhanced the effect of Eth on the phosphorylation of mTORC1 and autophagy”.
